Measured values from US20070275961A1, “Triazolo ' 1, 5-A ! Pyrimidines and Their Use in Medicine” (VERNALIS (CAMBRIDGE) LIMITED., priority 2003, published 2007).

Tests used:
Type in all cases: biochemical
PDK1 enzyme = biological target: T1, PDK1 enzyme (Homo sapiens, UniProt O15530); test: PDK1 3'-phosphoinositide-dependent kinase assay, phosphorylation of synthetic peptide (33P-ATP filtration); conditions: Table 3; 0.01 mM ATP; read-out: PDK1 IC50
T1 sequence (O15530 1-556): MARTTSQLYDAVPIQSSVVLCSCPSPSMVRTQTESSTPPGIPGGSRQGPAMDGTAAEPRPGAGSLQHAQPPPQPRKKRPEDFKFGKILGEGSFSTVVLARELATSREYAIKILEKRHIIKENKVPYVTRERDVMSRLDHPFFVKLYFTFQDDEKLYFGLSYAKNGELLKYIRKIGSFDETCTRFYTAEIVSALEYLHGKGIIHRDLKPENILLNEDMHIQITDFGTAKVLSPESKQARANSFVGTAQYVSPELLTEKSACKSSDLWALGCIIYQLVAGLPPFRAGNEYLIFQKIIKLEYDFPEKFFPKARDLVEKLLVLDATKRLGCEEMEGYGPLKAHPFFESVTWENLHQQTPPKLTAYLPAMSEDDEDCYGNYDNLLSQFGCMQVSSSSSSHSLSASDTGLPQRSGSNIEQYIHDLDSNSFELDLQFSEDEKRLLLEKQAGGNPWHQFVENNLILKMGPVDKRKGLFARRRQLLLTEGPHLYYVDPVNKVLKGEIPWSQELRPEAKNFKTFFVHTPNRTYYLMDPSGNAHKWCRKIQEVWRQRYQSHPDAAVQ
In short: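 Radiometric peptide phosphorylation by PDK1 with inhibitor, 60 min at 30 °C, using 0.01 mM ATP plus 33P-γ-ATP, 0.075 mM peptide, 7.5 mM Mg acetate in Tris-HCl pH 7.5. Phosphoric acid stopped reaction; phosphorylated peptide captured on filter plates and counted by scintillation.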

Chk1 = biological target: T2, Chk1 (Homo sapiens, UniProt O14757); test: Chk1 kinase assay, phosphorylation of Chktide (33P-ATP filtration); conditions: Table 3; 0.01 mM ATP; read-out: Chk1 IC50
T2 sequence (O14757 1-476): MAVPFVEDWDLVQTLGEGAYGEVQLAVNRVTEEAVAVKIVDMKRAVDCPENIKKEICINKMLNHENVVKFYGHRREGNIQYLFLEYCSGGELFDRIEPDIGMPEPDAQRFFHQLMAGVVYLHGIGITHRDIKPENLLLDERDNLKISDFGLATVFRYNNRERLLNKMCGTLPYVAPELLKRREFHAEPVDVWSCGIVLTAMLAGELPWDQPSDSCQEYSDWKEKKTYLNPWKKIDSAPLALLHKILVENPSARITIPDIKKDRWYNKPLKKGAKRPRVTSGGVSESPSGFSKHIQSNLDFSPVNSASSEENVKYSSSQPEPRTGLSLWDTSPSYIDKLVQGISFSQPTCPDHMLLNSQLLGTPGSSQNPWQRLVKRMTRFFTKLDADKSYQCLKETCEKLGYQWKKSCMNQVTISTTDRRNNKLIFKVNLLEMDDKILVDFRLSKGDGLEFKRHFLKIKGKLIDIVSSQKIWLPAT
In short: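 GST-Chk1 (11 nM) with inhibitor, 30 μM Chktide peptide, 0.01 mM ATP plus 33P-γ-ATP in 50 mM Hepes pH 7.5 with 0.1 mg/ml BSA, 40 min at 30° C. Stopped with phosphoric acid; phosphorylated peptide captured on filter plates and scintillation-counted.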

[1] = biological target: CDK2 enzyme, complexed with cyclin A (Homo sapiens, UniProt P24941); test: CDK2 cyclin dependent kinase assay, phosphorylation of synthetic peptide […] (33P-ATP filtration); conditions: Table 3; 0.1 mM ATP

Compound | IC50 (PDK1 enzyme) [µM] | IC50 (Chk1) [µM] | IC50 [1] [µM]
Cc1cc(Nc2ccc(C(N)=O)cc2)nc2ncnn12 [Example 114] | > 200 | 6.42 | > 200
CC(C)c1cc(Nc2ccc(C(N)=O)cc2)nc2ncnn12 [Example 115] | > 200 | 83.7 | 148
CS(=O)(=O)c1ccc(Nc2cc(-c3cccc(F)c3)n3ncnc3n2)cc1 [Example 119] | 115 | 2.58 | > 200
CCN(CC)CCNC(=O)c1ccc(Nc2cc(C)n3ncnc3n2)cc1 [Example 120] | > 200 | 0.82 | > 200
CCN(CC)CCNC(=O)c1ccc(Nc2cc(C(C)C)n3ncnc3n2)cc1 [Example 122] | > 200 | 22.9 | > 200
NC(=O)c1ccc(Nc2cc(Cc3ccccc3)n3ncnc3n2)cc1 [Example 123] | > 200 | 31.4 | > 200
CCN(CC)CCNC(=O)c1ccc(Nc2cc(Cc3ccccc3)n3ncnc3n2)cc1 [Example 124] | > 200 | 15.8 | > 200
CCN(CC)CCNC(=O)c1ccc(Nc2cc(Cc3ccccc3OC)n3ncnc3n2)cc1 [Example 125] | > 200 | 37.4 | > 200
COc1ccc(OC)c(Cc2cc(Nc3ccc(C(N)=O)cc3)nc3ncnn23)c1 [Example 127] | > 200 | 106 | > 200
CCN(CC)CCNC(=O)c1ccc(Nc2cc(Cc3cc(OC)ccc3OC)n3ncnc3n2)cc1 [Example 128] | > 200 | 65.8 | > 200

Stronger by IC50 (PDK1 enzyme), values ahead:

IC50 (PDK1 enzyme) [µM] | IC50 (Chk1) [µM] | IC50 [1] [µM] | Compound
4.08 | 14.9 | > 200 | Cc1cccc(-c2cc(Nc3ccc(C(N)=O)cc3)nc3ncnn23)c1 [Example 104]
6.1 | 5.45 | > 200 | CCN(CC)CCNC(=O)c1ccc(Nc2cc(-c3cccc(C)c3)n3ncnc3n2)cc1 [Example 105]
23.2 | 63.3 | > 200 | Cc1cccc(-c2cc(Nc3ccc(N4CCOCC4)cc3)nc3ncnn23)c1 [Example 106]
14.7 | 42.2 | > 200 | Cc1cccc(-c2cc(Nc3ccc(CCO)cc3)nc3ncnn23)c1 [Example 107]
66.8 | 36.8 | > 200 | Cc1cccc(-c2cc(Nc3ccc(N(C)C)cc3)nc3ncnn23)c1 [Example 108]
36 | 6.7 | > 200 | Cc1cccc(-c2cc(Nc3ccc(N4CCN(C)CC4)cc3)nc3ncnn23)c1 [Example 109]
52.2 | 9.57 | > 200 | OCCc1ccc(Nc2cc(-c3cccc(F)c3)n3ncnc3n2)cc1 [Example 111]
51.6 | > 200 | 119 | N#Cc1ccc(Nc2cc(-c3cccc(F)c3)n3ncnc3n2)cc1 [Example 112]
46.5 | 5.62 | > 200 | Fc1cccc(-c2cc(Nc3ccc(N4CCOCC4)cc3)nc3ncnn23)c1 [Example 113]
5.11 | 9.82 | 97.5 | NC(=O)c1ccc(Nc2cc(-c3ccccc3)n3ncnc3n2)cc1 [Example 116]
7.3 | 3.05 | > 200 | NC(=O)c1ccc(Nc2cc(-c3cccc(F)c3)n3ncnc3n2)cc1 [Example 117]
6.28 | 1.54 | 116 | NS(=O)(=O)c1ccc(Nc2cc(-c3cccc(F)c3)n3ncnc3n2)cc1 [Example 118]
15.4 | 2.25 | > 200 | CCN(CC)CCNC(=O)c1ccc(Nc2cc(-c3ccccc3)n3ncnc3n2)cc1 [Example 121]
30.6 | 12.2 | > 200 | CN(C)S(=O)(=O)c1ccc(Nc2cc(-c3cccc(F)c3)n3ncnc3n2)cc1 [Example 129]
34.2 | 26.9 | > 200 | O=S(=O)(c1ccc(Nc2cc(-c3cccc(F)c3)n3ncnc3n2)cc1)N1CCOCC1 [Example 130]
